# Measurements taken from paper PMC3853718 (Journal of Translational Medicine, 2013).
# Where two headings read alike, the source gives them in different places. Marks after values point to notes of the source that are not given here.
# Legend:
# [1] = Plasma pharmacokinetics after 2-hour IV infusion (LC-MS/MS); details: for AUC(0-inf): read-out: AUC(I) Mean; for AUC(0-t): read-out: AUC(tf) Mean
# [2] = tested on: solid tumors; assay: Tumor response by CT or MRI and RECIST; type: in vivo, human
# [3] = tested on: myeloma and NSCLC mouse xenograft models; details: at a dose 33% of the MAD; cited from earlier work
# [4] = tested on: PHA-stimulated lymphocytes in whole blood; assay: Ex vivo phytohemagglutinin lymphocyte stimulation assay (BrdU incorporation)
# Description: Whole blood isolated from subjects was treated with phytohemagglutinin (PHA) to stimulate cell division in lymphocytes. Following a brief 30-minute exposure to bromodeoxyuridine (BrdU), cells were harvested and stained using an FITC-conjugated antibody specific for BrdU, counterstained with propidium iodide/RNase A, and analyzed using a FACSCalibur flow cytometer.
# [5] = tested on: Rb protein phosphorylation; assay: Immunohistochemistry for phospho-Rb in skin biopsies; type: in vivo, human
# Description: . The phosphorylation status of the Rb protein in the proliferative layer of skin and in the proliferating cells at the base of hair follicles was determined by IHC utilizing a rabbit anti-phospho-Rb antibody diluted to 0.83 μg/mL or 0.67 μg/mL. Immunohistochemistry staining was scored 0 (no staining relative to background), 1+ (weak staining), 2+ (moderate staining), or 3+ (strong staining); H-score was calculated as a measure of overall immunoreactivity in a given sample, using the following formula: H-score = (% of cells with 3+) × 3 + (% of cells with 2+) × 2 + (% of cells with 1+) × 1. Subjects were to be categorized as responders if no degree of staining was detected with the anti-phospho-Rb antibody.
# [6] = tested on: metabolically active sites of disease; assay: FDG-PET/CT tumor metabolic activity (SUVmax); details: RP2D 12 mg/m^2, 10 evaluable subjects; responder = SUVmax decrease greater than 30%; 2-sided 95% CI: 0.3%, 44.5%
# Description: Metabolic activity data were obtained for research use only and were not used for clinical management of subjects.
compound,measurement,setting,value
CCc1cnn2c(NCc3ccc[n+]([O-])c3)cc(N3CCCC[C@H]3CCO)nc12 [dinaciclib],CL dependence on dose,[1]; 0.33 to 14 mg/m^2,dose independent
same,time at which Cmax was observed after the initiation of the infusion,[1]; 2-hour IV administration,approximately 2 hours
same,CL Mean,"[1]; Day 1, 0.33 mg/m^2, N 1",12.4 L/hr/m^2
same,Vd Mean,"[1]; Day 1, 0.33 mg/m^2, N 1",35.9 L/m^2
same,t½ Mean,"[1]; Day 1, 0.33 mg/m^2, N 1",2.01 h
same,CL Mean,"[1]; Day 1, 0.66 mg/m^2, N 1",18.5 L/hr/m^2
same,Cmax Mean,"[1]; Day 1, 0.66 mg/m^2, N 1",18.6 ng/mL
same,Tmax Median,"[1]; Day 1, 0.66 mg/m^2, N 1",2 h
same,Vd Mean,"[1]; Day 1, 0.66 mg/m^2, N 1",39.4 L/m^2
same,t½ Mean,"[1]; Day 1, 0.66 mg/m^2, N 1",1.48 h
same,Cmax Mean,"[1]; Day 1, 1.32 mg/m^2, N 1",63.8 ng/mL
same,Tmax Median,"[1]; Day 1, 1.32 mg/m^2, N 1",2 h
same,Cmax Mean,"[1]; Day 1, 2.59 mg/m^2, N 3 (n=1)",100^e ng/mL
same,Tmax Median,"[1]; Day 1, 2.59 mg/m^2, N 3 (n=1)",1^e hr
same,CL Mean,"[1]; Day 1, 2.59 mg/m^2, N 3 (n=2)",12.8^d L/hr/m^2
same,Vd Mean,"[1]; Day 1, 2.59 mg/m^2, N 3 (n=2)",61.4^d L/m^2
same,t½ Mean,"[1]; Day 1, 2.59 mg/m^2, N 3 (n=2)",3.28^d hr
same,CL Mean,"[1]; Day 1, 3.63 mg/m^2, N 7 (n=6)",11.2^h L/hr/m^2
same,Cmax Mean,"[1]; Day 1, 3.63 mg/m^2, N 7 (n=6)",210^i ng/mL
same,Tmax Median,"[1]; Day 1, 3.63 mg/m^2, N 7 (n=6)",1^i hr
same,Vd Mean,"[1]; Day 1, 3.63 mg/m^2, N 7 (n=6)",40.2^h L/m^2
same,t½ Mean,"[1]; Day 1, 3.63 mg/m^2, N 7 (n=6)",2.9^h hr
same,CL Mean,"[1]; Day 1, 5.08 mg/m^2, N 3",15.9 L/hr/m^2
same,Vd Mean,"[1]; Day 1, 5.08 mg/m^2, N 3",72.7 L/m^2
same,CL Mean,"[1]; Day 1, 7.11 mg/m^2, N 7",14.1 L/hr/m^2
same,Vd Mean,"[1]; Day 1, 7.11 mg/m^2, N 7",61.7 L/m^2
same,CL Mean,"[1]; Day 1, 10 mg/m^2, N 3",16.1 L/hr/m^2
same,Vd Mean,"[1]; Day 1, 10 mg/m^2, N 3",68.5 L/m^2
same,CL Mean,"[1]; Day 1, 12 mg/m^2, N 11",12.1 L/hr/m^2
same,Vd Mean,"[1]; Day 1, 12 mg/m^2, N 11",55.4 L/m^2
same,CL Mean,"[1]; Day 1, 14 mg/m^2, N 5",9.24 L/hr/m^2
same,Vd Mean,"[1]; Day 1, 14 mg/m^2, N 5",39.8 L/m^2
same,CL Mean,"[1]; Day 15, 0.33 mg/m^2, N 1",7.67 L/hr/m^2
same,Vd Mean,"[1]; Day 15, 0.33 mg/m^2, N 1",51 L/m^2
same,t½ Mean,"[1]; Day 15, 0.33 mg/m^2, N 1",4.61 h
same,CL Mean,"[1]; Day 15, 0.66 mg/m^2, N 1",23.9 L/hr/m^2
same,Vd Mean,"[1]; Day 15, 0.66 mg/m^2, N 1",57.6 L/m^2
same,CL Mean,"[1]; Day 15, 1.32 mg/m^2, N 1",9.83 L/hr/m^2
same,Vd Mean,"[1]; Day 15, 1.32 mg/m^2, N 1",48 L/m^2
same,CL Mean,"[1]; Day 15, 2.59 mg/m^2, N 3 (n=2)",15.6^m L/hr/m^2
same,Vd Mean,"[1]; Day 15, 2.59 mg/m^2, N 3 (n=2)",80.7^m L/m^2
same,CL Mean,"[1]; Day 15, 3.63 mg/m^2, N 6 (n=3)",12.5° L/hr/m^2
same,Vd Mean,"[1]; Day 15, 3.63 mg/m^2, N 6 (n=3)",71.6° L/m^2
same,CL Mean,"[1]; Day 15, 5.08 mg/m^2, N 2",14.6 L/hr/m^2
same,Cmax Mean,"[1]; Day 15, 5.08 mg/m^2, N 2",147 ng/mL
same,Tmax Median,"[1]; Day 15, 5.08 mg/m^2, N 2",2 h
same,Vd Mean,"[1]; Day 15, 5.08 mg/m^2, N 2",66.2 L/m^2
same,t½ Mean,"[1]; Day 15, 5.08 mg/m^2, N 2",3.17 h
same,Cmax Mean,"[1]; Day 15, 7.11 mg/m^2, N 7",306 ng/mL
same,Tmax Median,"[1]; Day 15, 7.11 mg/m^2, N 7",1 h
same,CL Mean,"[1]; Day 15, 7.11 mg/m^2, N 7 (n=6)",12.4^q L/hr/m^2
same,Vd Mean,"[1]; Day 15, 7.11 mg/m^2, N 7 (n=6)",49.9^q L/m^2
same,t½ Mean,"[1]; Day 15, 7.11 mg/m^2, N 7 (n=6)",2.71^q hr
same,CL Mean,"[1]; Day 15, 10 mg/m^2, N 3",15.2 L/hr/m^2
same,Cmax Mean,"[1]; Day 15, 10 mg/m^2, N 3",321 ng/mL
same,Tmax Median,"[1]; Day 15, 10 mg/m^2, N 3",2 h
same,Vd Mean,"[1]; Day 15, 10 mg/m^2, N 3",90.6 L/m^2
same,t½ Mean,"[1]; Day 15, 10 mg/m^2, N 3",4.14 h
same,CL Mean,"[1]; Day 15, 12 mg/m^2, N 10",11.5 L/hr/m^2
same,Cmax Mean,"[1]; Day 15, 12 mg/m^2, N 10",526 ng/mL
same,Tmax Median,"[1]; Day 15, 12 mg/m^2, N 10",2 h
same,Vd Mean,"[1]; Day 15, 12 mg/m^2, N 10",49.3 L/m^2
same,t½ Mean,"[1]; Day 15, 12 mg/m^2, N 10",3.16 h
same,CL Mean,"[1]; Day 15, 14 mg/m^2, N 4",13.9 L/hr/m^2
same,Cmax Mean,"[1]; Day 15, 14 mg/m^2, N 4",568 ng/mL
same,Tmax Median,"[1]; Day 15, 14 mg/m^2, N 4",2 h
same,Vd Mean,"[1]; Day 15, 14 mg/m^2, N 4",70.2 L/m^2
same,t½ Mean,"[1]; Day 15, 14 mg/m^2, N 4",3.43 h
same,accumulation in plasma,"[1]; days 1, 8, 15 of cycle 1 and day 1 of cycle 2",does not accumulate in plasma
same,AUC(0-inf),"[1]; Day 1, 0.33 mg/m^2, N 1",26.7 ng·h/mL
same,AUC(0-inf),"[1]; Day 1, 0.66 mg/m^2, N 1",35.7 ng·h/mL
same,AUC(0-inf),"[1]; Day 1, 2.59 mg/m^2, N 3 (n=2)",214 ng·h/mL
same,AUC(0-inf),"[1]; Day 1, 3.63 mg/m^2, N 7 (n=6)",458 ng·h/mL
same,AUC(0-inf),"[1]; Day 15, 5.08 mg/m^2, N 2",354 ng·h/mL
same,AUC(0-inf),"[1]; Day 15, 7.11 mg/m^2, N 7 (n=6)",686 ng·h/mL
same,AUC(0-inf),"[1]; Day 15, 10 mg/m^2, N 3",722 ng·h/mL
same,AUC(0-inf),"[1]; Day 15, 12 mg/m^2, N 10",1270 ng·h/mL
same,AUC(0-inf),"[1]; Day 15, 14 mg/m^2, N 4",1180 ng·h/mL
same,AUC(0-t),"[1]; Day 1, 0.33 mg/m^2, N 1",26.1 ng·h/mL
same,AUC(0-t),"[1]; Day 1, 0.66 mg/m^2, N 1",35.3 ng·h/mL
same,AUC(0-t),"[1]; Day 1, 1.32 mg/m^2, N 1",112 ng·h/mL
same,AUC(0-t),"[1]; Day 1, 2.59 mg/m^2, N 3",809 ng·h/mL
same,AUC(0-t),"[1]; Day 1, 3.63 mg/m^2, N 7",465 ng·h/mL
same,AUC(0-t),"[1]; Day 1, 10 mg/m^2, N 3",681 ng·h/mL
same,AUC(0-t),"[1]; Day 15, 0.66 mg/m^2, N 1",27.2 ng·h/mL
same,AUC(0-t),"[1]; Day 15, 2.59 mg/m^2, N 3",739 ng·h/mL
same,AUC(0-t),"[1]; Day 15, 3.63 mg/m^2, N 6",401 ng·h/mL
same,AUC(0-t),"[1]; Day 15, 7.11 mg/m^2, N 7",710 ng·h/mL
same,AUC(0-t),"[1]; Day 15, 10 mg/m^2, N 3",704 ng·h/mL
same,AUC(0-t),"[1]; Day 15, 12 mg/m^2, N 10",1270 ng·h/mL
same,Number of cycles,"[2]; Subject 2902, NSCLC, 0.66 mg/m^2, stable disease",6
same,Number of cycles,"[2]; Subject 2910, Pseudomyxoma peritonei, 2.59 mg/m^2, stable disease",9
same,Number of cycles,"[2]; Subject 2913, Prostate cancer, 3.63 mg/m^2, stable disease",4
same,Number of cycles,"[2]; Subject 2920, Melanoma, 3.63 mg/m^2, stable disease",10
same,Number of cycles,"[2]; Subject 2926, Sarcoma, 7.11 mg/m^2, stable disease",12
same,Number of cycles,"[2]; Subject 2928, Gastrointestinal stromal tumor, 7.11 mg/m^2, stable disease",10
same,Number of cycles,"[2]; Subject 2931, Esophageal carcinoma, 7.11 mg/m^2, stable disease",11
same,Number of cycles,"[2]; Subject 2932, Adenoid cyst carcinoma, 7.11 mg/m^2, stable disease",5
same,Number of cycles,"[2]; Subject 2937, Adenoid cyst carcinoma, 14.0 mg/m^2, stable disease",8
same,Number of cycles,"[2]; Subject 2945, NSCLC, 12.0 mg/m^2, stable disease",4
same,subjects with prolonged SD for at least 4 cycles of treatment,[2]; all dose levels,at least 10 subjects
same,complete or partial responses (RECIST),"[2]; subjects with solid tumors, all dose levels",no observed complete or partial responses
same,tumor response in xenograft models,[3],complete tumor regression
same,plasma concentration at which BrdU incorporation was completely inhibited,"[4]; 46 subjects, 0.33 to 14 mg/m^2",> 200 ng/mL
same,BrdU response rate,"[4]; RP2D 12 mg/m^2, 7 evaluable subjects, responder = less than 5% BrdU incorporation, 2-sided 95% CI: 59%, 100%",100%
same,Mean percent difference in BrdU uptake (95% CI),"[4]; RP2D 12 mg/m^2, Day 1, Predose – 2 hours, 7 patients","10.72 (4.69, 16.75) percent"
same,Mean percent difference in BrdU uptake (95% CI),"[4]; RP2D 12 mg/m^2, Day 1, Predose – 3 hours, 7 patients","9.28 (1.44, 17.13) percent"
same,Mean percent difference in BrdU uptake (95% CI),"[4]; RP2D 12 mg/m^2, Day 1, Predose – 4 hours, 7 patients","6.05 (-4.03, 16.12) percent"
same,Mean percent difference in BrdU uptake (95% CI),"[4]; RP2D 12 mg/m^2, Day 1, Predose – 6 hours, 7 patients","10.16 (3.89, 16.43) percent"
same,Mean percent difference in BrdU uptake (95% CI),"[4]; RP2D 12 mg/m^2, Day 1, Predose – 8 hours, 6 patients","8.76 (2.87, 14.65) percent"
same,Mean percent difference in BrdU uptake (95% CI),"[4]; RP2D 12 mg/m^2, Day 15, Predose – 2 hours, 7 patients","14.82 (6.02, 23.61) percent"
same,Mean percent difference in BrdU uptake (95% CI),"[4]; RP2D 12 mg/m^2, Day 15, Predose – 4 hours, 7 patients","5.47 (-4.17, 15.12) percent"
same,Mean percent difference in BrdU uptake (95% CI),"[4]; RP2D 12 mg/m^2, Day 15, Predose – 8 hours, 5 patients","16.48 (5.63, 27.34) percent"
same,BrdU incorporation,"[4]; majority of samples, at plasma concentration of 100 ng/mL",less than 5%
same,mean phospho-Rb H score following treatment,"[5]; RP2D 12 mg/m^2, 11 subjects, skin biopsy 4 hours after treatment, before treatment 18.55",17.64
same,response based on phospho-Rb staining,[5]; responder = complete loss of phospho-Rb staining,no subjects were deemed to have achieved a response
same,PET/CT response rate,[6],10.0%
